Laboratory results from the supplement of paper PMC10307832.

Legend:
Test in all cases: relative viability (nuclei count vs DMSO), 5 days (fraction); higher = more cells survive
MLN4924 + Trametinib = compound: NS(=O)(=O)OC[C@@H]1C[C@@H](n2ccc3c(N[C@H]4CCc5ccccc54)ncnc32)C[C@@H]1O [MLN4924] + CC(=O)Nc1cccc(-n2c(=O)n(C3CC3)c(=O)c3c(Nc4ccc(I)cc4F)n(C)c(=O)c(C)c32)c1 [Trametinib] (partner 0.02 µM)
In short: (§1)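 Cells from lung cancer lines were seeded into 1536-well plates and, one day later, dosed by pin tool. Treatments were either a single drug or a fixed dose of an anchor drug with five library-drug doses (not always all listed) in √10 steps. After 5 days, nuclei were stained in a one-step fixation (final 0.05% Triton X-100, 1% formaldehyde, 1 ug/ml Hoechst) and counted on 4× images, and relative viability is the treated-to-vehicle nuclei ratio, as the median of duplicate plates.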

MLN4924 + Palbociclib = compound: NS(=O)(=O)OC[C@@H]1C[C@@H](n2ccc3c(N[C@H]4CCc5ccccc54)ncnc32)C[C@@H]1O [MLN4924] + CC(=O)c1c(C)c2cnc(Nc3ccc(N4CCNCC4)cn3)nc2n(C2CCCC2)c1=O [Palbociclib] (partner 0.5 µM)
In short: as §1

MLN4924 + Crizotinib = compound: NS(=O)(=O)OC[C@@H]1C[C@@H](n2ccc3c(N[C@H]4CCc5ccccc54)ncnc32)C[C@@H]1O [MLN4924] + C[C@@H](Oc1cc(-c2cnn(C3CCNCC3)c2)cnc1N)c1c(Cl)ccc(F)c1Cl [Crizotinib] (partner 1 µM)
In short: as §1

Carboplatin + Lapatinib = compound: C1CC(C1)(C(=O)O)C(=O)O.[NH2-].[NH2-].[Pt+2] [Carboplatin] + CS(=O)(=O)CCNCc1ccc(-c2ccc3ncnc(Nc4ccc(OCc5cccc(F)c5)c(Cl)c4)c3c2)o1 [Lapatinib] (partner 2 µM)
In short: as §1

Cell Line | relative viability (MLN4924 + Trametinib; first compound 0.04 µM) | relative viability (MLN4924 + Trametinib; first compound 0.1265 µM) | relative viability (MLN4924 + Trametinib; first compound 0.4 µM) | relative viability (MLN4924 + Trametinib; first compound 1.265 µM) | relative viability (MLN4924 + Trametinib; first compound 4 µM) | relative viability (MLN4924 + Palbociclib; first compound 0.04 µM) | relative viability (MLN4924 + Palbociclib; first compound 0.1265 µM) | relative viability (MLN4924 + Palbociclib; first compound 0.4 µM) | relative viability (MLN4924 + Palbociclib; first compound 1.265 µM) | relative viability (MLN4924 + Palbociclib; first compound 4 µM) | relative viability (MLN4924 + Crizotinib; first compound 0.04 µM) | relative viability (MLN4924 + Crizotinib; first compound 0.1265 µM) | relative viability (MLN4924 + Crizotinib; first compound 0.4 µM) | relative viability (MLN4924 + Crizotinib; first compound 1.265 µM) | relative viability (MLN4924 + Crizotinib; first compound 4 µM) | relative viability (Carboplatin + Lapatinib; first compound 0.08 µM) | relative viability (Carboplatin + Lapatinib; first compound 0.253 µM) | relative viability (Carboplatin + Lapatinib; first compound 0.8 µM) | relative viability (Carboplatin + Lapatinib; first compound 2.53 µM) | relative viability (Carboplatin + Lapatinib; first compound 8 µM)
NCI-H2126 | 0.576 | 0.563 | 0.484 | 0.329 | 0.243 | 0.403 | 0.424 | 0.397 | 0.327 | 0.237 | 0.912 | 0.911 | 0.789 | 0.397 | 0.256 | 0.737 | 0.758 | 0.796 | 0.8 | 0.721
LXF-289 | 0.568 | 0.419 | 0.464 | 0.216 | 0.131 | 0.568 | 0.458 | 0.472 | 0.194 | 0.112 | 0.605 | 0.566 | 0.508 | 0.205 | 0.126 | 0.908 | 0.936 | 0.91 | 0.89 | 0.891
BEN | 1 | 0.733 | 0.548 | 0.372 | 0.287 | 0.402 | 0.411 | 0.374 | 0.285 | 0.222 | 0.73 | 0.38 | 0.272 | 0.172 | 0.17 | 0.797 | 0.87 | 0.749 | 0.654 | 0.59
NCI-H1993 | 0.63 | 0.425 | 0.388 | 0.415 | 0.356 | 0.792 | 0.428 | 0.422 | 0.362 | 0.377 | 1.02 | 0.678 | 0.626 | 0.447 | 0.622 | 0.834 | 0.843 | 0.909 | 0.791 | 0.853
SW 1573 | 0.586 | 0.441 | 0.14 | 0.0868 | 0.0758 | 0.375 | 0.306 | 0.155 | 0.0802 | 0.0896 | 0.802 | 0.734 | 0.748 | 0.0862 | 0.0778 | 1.05 | 1.1 | 1.17 | 1.3 | 0.961
NCI-H520 | 0.527 | 0.396 | 0.346 | 0.149 | 0.168 | 0.224 | 0.226 | 0.153 | 0.145 | 0.156 | 0.431 | 0.491 | 0.338 | 0.168 | 0.151 | 1.07 | 0.985 | 1.03 | 0.784 | 0.59
LCLC-97TM1 | 0.208 | 0.214 | 0.157 | 0.0691 | 0.0607 | 0.185 | 0.114 | 0.0981 | 0.0625 | 0.0723 | 0.27 | 0.202 | 0.151 | 0.123 | 0.0984 | 0.891 |  | 1.02 | 1.08 | 1
HCC-827 | 0.738 | 0.601 | 0.526 | 0.193 | 0.156 | 0.35 | 0.325 | 0.317 | 0.173 | 0.148 | 0.836 | 0.658 | 0.61 | 0.247 | 0.178 | 0.236 | 0.175 | 0.18 | 0.187 | 0.224
NCI-H1975 | 0.344 | 0.544 | 0.44 | 0.38 | 0.312 | 0.549 | 0.696 | 0.707 | 0.557 | 0.231 | 0.876 | 1.11 | 1.17 | 0.484 | 0.22 | 0.877 | 0.993 | 0.838 | 0.826 | 0.884
